Experimental findings from ChEMBL document CHEMBL3991601, “The target landscape of clinical kinase drugs” (Science, 2017) are described below.

SMILES strings stand for the structures. Active and inactive are the calls of the source. Rule as the data show it, for most assays here: actives have a measured Kd and inactives only a lower limit.

For assay [1], the target named is Ribosomal protein S6 kinase alpha-5 (Homo sapiens, UniProt O75582).
Assay [2] has as its target T1, Tyrosine--tRNA ligase, cytoplasmic (Homo sapiens, UniProt P54577).
T1 sequence (P54577 whole entry): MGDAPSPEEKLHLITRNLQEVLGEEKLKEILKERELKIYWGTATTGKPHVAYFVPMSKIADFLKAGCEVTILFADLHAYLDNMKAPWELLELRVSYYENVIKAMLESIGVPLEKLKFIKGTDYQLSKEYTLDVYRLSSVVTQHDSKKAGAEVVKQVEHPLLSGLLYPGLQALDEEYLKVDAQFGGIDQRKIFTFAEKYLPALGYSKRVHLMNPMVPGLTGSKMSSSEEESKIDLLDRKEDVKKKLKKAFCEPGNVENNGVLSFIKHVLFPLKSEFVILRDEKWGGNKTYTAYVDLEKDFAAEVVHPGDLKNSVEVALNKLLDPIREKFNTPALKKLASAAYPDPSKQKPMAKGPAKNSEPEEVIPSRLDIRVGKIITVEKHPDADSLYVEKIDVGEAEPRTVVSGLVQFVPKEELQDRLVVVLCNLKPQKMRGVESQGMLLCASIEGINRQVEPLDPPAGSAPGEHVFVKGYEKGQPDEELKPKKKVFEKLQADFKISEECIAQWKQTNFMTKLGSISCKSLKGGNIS

In assay [3] the target is Focal adhesion kinase 1 (Homo sapiens, UniProt Q05397).
The target of assay [4] is cAMP-dependent protein kinase type II-alpha regulatory subunit (Homo sapiens, UniProt P13861).
For assay [5], the target named is T2, Glycogen phosphorylase, brain form (Homo sapiens, UniProt P11216).
T2 sequence (P11216 whole entry): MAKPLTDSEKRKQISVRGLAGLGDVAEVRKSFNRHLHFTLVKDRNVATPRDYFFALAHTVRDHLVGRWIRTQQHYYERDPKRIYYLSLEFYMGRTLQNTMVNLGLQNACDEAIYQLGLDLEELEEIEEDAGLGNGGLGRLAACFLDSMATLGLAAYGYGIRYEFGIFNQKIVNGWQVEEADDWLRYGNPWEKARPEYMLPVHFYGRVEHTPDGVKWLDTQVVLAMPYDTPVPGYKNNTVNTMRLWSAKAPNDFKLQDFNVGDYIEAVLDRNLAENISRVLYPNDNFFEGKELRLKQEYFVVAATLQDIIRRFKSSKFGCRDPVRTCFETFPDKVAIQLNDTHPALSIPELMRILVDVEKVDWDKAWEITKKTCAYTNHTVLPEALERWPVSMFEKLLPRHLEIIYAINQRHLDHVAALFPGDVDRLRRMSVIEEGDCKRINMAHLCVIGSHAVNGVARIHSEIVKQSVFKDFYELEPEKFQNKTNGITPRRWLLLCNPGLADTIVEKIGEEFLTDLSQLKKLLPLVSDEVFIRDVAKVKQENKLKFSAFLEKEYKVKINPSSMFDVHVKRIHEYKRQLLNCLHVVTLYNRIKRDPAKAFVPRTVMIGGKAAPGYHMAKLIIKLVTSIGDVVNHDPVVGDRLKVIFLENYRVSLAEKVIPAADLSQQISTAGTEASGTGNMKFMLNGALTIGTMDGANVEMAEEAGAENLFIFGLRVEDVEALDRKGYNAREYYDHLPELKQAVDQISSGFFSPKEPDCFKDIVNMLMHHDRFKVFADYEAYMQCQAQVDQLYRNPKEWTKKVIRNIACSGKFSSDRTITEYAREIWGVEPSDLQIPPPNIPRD

The target of assay [6] is Serine/threonine-protein kinase PAK 4 (Homo sapiens, UniProt O96013).
For assay [7], the target named is T3, STE20-related kinase adapter protein alpha (Homo sapiens, UniProt Q7RTN6).
T3 sequence (Q7RTN6 whole entry): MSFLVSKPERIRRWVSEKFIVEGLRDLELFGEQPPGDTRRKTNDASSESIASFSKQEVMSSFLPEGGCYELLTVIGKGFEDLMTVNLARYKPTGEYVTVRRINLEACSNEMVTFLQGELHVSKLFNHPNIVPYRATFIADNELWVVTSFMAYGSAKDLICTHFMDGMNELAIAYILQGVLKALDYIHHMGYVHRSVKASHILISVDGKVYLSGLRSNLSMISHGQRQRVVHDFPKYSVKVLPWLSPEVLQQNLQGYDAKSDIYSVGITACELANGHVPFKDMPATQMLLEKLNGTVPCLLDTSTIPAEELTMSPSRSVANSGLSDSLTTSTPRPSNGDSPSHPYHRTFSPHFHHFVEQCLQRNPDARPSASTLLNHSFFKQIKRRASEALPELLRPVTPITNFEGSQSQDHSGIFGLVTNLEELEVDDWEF

Assay [8] concerns the target Casein kinase I isoform delta (Homo sapiens, UniProt P48730).
The target in assay [9] is LIM domain kinase 2 (Homo sapiens, UniProt P53671).
Assay [10] has as its target MAP/microtubule affinity-regulating kinase 3 (Homo sapiens, UniProt P27448).
Also: in the data inactive means no Kd found up to 30 µM.

Serine/threonine-protein kinase PAK 4, sequence (O96013 whole entry): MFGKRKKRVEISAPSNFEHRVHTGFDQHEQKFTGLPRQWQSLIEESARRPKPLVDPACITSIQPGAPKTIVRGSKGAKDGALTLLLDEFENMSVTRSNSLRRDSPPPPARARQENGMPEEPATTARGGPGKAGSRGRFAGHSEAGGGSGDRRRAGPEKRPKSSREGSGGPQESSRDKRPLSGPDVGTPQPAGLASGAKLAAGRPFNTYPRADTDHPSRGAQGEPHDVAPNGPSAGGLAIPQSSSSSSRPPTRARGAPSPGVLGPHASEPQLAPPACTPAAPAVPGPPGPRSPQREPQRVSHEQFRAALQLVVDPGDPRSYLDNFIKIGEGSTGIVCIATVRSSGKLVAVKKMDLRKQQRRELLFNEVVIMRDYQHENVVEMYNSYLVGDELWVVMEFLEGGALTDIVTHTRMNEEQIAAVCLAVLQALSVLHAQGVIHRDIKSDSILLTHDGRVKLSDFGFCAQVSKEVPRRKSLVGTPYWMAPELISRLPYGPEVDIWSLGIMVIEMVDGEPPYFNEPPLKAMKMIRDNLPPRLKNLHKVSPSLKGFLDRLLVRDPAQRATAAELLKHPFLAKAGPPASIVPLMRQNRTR
cAMP-dependent protein kinase type II-alpha regulatory subunit, sequence (P13861 whole entry): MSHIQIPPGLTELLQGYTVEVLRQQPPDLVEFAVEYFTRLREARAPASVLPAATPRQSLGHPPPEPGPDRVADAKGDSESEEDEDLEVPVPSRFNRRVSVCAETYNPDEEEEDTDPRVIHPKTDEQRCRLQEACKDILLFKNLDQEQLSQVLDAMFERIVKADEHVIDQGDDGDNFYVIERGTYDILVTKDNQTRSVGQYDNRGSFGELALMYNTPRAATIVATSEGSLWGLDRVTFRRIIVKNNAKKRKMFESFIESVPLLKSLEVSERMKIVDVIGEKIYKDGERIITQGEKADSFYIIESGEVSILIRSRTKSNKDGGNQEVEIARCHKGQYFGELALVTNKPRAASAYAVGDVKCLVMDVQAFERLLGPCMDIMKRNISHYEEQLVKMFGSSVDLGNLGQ
Ribosomal protein S6 kinase alpha-5, sequence (O75582 whole entry): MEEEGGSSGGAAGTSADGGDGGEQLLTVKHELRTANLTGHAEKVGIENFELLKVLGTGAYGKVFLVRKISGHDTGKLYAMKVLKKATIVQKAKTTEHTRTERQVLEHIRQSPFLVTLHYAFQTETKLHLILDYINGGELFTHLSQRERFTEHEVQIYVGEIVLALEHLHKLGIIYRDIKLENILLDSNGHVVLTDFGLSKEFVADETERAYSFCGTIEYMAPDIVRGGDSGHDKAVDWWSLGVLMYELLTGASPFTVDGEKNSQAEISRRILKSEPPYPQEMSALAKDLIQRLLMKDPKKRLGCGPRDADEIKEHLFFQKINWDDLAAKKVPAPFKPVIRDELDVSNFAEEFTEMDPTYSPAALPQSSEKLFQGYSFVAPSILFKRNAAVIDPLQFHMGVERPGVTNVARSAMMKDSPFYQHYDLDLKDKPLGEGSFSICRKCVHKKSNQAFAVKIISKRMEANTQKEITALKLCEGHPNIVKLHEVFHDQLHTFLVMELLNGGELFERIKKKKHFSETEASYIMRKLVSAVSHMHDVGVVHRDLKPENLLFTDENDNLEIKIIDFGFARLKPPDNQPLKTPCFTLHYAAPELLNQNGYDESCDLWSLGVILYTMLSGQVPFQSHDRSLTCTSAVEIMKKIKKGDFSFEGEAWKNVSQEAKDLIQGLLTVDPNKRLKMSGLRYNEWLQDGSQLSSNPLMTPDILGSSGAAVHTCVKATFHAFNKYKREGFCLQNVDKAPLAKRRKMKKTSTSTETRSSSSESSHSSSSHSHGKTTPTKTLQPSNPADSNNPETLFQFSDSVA
MAP/microtubule affinity-regulating kinase 3, sequence (P27448 whole entry): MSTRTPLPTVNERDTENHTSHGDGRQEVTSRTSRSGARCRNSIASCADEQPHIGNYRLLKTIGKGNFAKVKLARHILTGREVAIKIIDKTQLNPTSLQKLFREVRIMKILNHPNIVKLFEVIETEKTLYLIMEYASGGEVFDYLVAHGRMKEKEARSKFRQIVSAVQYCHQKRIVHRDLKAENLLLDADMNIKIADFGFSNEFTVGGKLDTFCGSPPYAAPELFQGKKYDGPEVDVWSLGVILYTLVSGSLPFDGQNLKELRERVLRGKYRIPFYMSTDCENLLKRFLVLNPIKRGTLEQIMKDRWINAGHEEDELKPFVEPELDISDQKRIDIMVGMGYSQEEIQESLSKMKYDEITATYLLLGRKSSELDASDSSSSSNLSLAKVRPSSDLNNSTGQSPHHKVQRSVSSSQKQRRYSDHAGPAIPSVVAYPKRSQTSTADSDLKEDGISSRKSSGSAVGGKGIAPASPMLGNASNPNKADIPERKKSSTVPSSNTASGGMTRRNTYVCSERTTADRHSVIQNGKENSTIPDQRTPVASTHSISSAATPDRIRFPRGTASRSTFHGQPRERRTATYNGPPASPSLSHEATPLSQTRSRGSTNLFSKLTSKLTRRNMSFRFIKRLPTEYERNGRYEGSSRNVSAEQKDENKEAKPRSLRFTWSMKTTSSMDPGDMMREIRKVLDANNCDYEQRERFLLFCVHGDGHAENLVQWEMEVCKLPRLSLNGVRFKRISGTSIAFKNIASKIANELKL
LIM domain kinase 2, sequence (P53671 whole entry, the tested form may be a part): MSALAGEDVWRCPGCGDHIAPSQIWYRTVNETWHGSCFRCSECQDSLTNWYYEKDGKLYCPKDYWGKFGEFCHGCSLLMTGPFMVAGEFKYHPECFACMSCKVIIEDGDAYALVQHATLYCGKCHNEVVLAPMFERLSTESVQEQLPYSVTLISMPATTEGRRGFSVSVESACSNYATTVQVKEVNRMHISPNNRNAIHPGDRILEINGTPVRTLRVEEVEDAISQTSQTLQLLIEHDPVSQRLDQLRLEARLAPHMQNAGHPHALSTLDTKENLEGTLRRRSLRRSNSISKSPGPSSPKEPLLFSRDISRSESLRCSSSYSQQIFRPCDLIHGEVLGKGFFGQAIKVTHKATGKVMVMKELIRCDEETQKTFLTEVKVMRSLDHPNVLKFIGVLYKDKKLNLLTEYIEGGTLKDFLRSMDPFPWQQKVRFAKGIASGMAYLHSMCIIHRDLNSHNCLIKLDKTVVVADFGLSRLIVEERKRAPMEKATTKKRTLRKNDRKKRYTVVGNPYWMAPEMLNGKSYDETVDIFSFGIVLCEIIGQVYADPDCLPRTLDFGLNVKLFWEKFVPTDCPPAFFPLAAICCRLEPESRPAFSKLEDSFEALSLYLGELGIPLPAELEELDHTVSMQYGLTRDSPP
Focal adhesion kinase 1, sequence (Q05397 whole entry): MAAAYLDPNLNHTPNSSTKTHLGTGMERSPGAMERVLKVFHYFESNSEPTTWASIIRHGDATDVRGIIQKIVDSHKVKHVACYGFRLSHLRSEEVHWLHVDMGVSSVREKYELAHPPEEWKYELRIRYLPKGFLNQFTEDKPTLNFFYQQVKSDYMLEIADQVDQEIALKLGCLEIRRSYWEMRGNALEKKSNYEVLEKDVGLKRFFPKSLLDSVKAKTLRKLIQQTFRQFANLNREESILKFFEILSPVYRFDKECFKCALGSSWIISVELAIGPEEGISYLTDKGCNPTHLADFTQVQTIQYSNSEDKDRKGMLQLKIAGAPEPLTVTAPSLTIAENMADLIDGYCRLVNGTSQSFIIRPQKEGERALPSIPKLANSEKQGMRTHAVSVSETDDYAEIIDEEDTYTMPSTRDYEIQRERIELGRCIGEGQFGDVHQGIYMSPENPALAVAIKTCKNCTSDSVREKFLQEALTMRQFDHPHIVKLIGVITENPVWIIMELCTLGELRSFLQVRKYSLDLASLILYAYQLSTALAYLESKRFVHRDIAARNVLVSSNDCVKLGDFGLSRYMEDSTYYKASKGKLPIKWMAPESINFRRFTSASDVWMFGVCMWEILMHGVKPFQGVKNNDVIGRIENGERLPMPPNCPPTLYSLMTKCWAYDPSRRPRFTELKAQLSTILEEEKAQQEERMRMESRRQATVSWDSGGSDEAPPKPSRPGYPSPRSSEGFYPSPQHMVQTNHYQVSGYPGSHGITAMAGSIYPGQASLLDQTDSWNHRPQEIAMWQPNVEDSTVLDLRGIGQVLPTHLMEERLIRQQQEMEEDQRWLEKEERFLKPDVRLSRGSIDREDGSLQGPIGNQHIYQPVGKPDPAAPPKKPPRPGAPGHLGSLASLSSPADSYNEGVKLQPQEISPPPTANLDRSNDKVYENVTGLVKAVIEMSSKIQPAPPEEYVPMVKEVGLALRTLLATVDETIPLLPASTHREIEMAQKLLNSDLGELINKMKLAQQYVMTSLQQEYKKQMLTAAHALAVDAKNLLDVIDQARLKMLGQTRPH
Casein kinase I isoform delta, sequence (P48730 whole entry, the tested form may be a part, canonical isoform): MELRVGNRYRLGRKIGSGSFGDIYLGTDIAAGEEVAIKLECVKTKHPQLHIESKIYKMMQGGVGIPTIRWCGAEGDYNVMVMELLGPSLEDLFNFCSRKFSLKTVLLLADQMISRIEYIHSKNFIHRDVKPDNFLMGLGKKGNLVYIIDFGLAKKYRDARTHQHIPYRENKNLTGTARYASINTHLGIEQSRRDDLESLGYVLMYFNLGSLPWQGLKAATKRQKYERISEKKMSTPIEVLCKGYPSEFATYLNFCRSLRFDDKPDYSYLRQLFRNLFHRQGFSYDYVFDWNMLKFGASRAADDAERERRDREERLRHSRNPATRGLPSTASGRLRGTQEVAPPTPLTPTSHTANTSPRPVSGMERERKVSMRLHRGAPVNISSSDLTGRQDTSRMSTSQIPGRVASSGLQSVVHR

As usually defined, the Kd is a measure of binding affinity in units of concentration. As to `O=C(Nc1ccc(-c2ccnc(Nc3ccc(N4CCOCC4)cc3)n2)cc1)C1CCCN1` (stereo unspecified) [XL-019], the Kd in assay [1], in assay [2], in assay [3], in assay [4], in assay [5] and in assay [6] was > 30 µM (inactive) each time. Further, the Kd was > 30 µM (inactive) in [7], > 30 µM (inactive) in assay [8], > 30 µM (inactive) in assay [9] and 1.61 µM (active) in assay [10].
Take `Cn1ncc(Cl)c1-c1cc(C(=O)N[C@H](CN)Cc2cccc(F)c2)sc1Cl` [AFURESERTIB]: the Kd in assay [1], in assay [2], in assay [3], in assay [4], in assay [5] and in assay [6] was > 30 µM (inactive) throughout. The Kd in assay [7], in assay [8], in [9] and in [10] was > 30 µM (inactive) each time.
On to `CCn1c(-c2nonc2N)nc2c(C#CC(C)(C)O)ncc(OC[C@H]3CCCNC3)c21` [GSK-690693], for which the Kd in assay [2] was > 30 µM (inactive); in assay [4], 0.052 µM; in [5], > 30 µM (inactive); in [7] it was > 30 µM (inactive).
Consider `C=CC(=O)N1CCC(Oc2cc3c(Nc4ccc(Cl)c(Cl)c4F)ncnc3cc2OC)CC1` [POZIOTINIB], for which the Kd in assay [1], in [2], in [3], in [5], in assay [6] and in assay [7] was > 30 µM (inactive) each time. Besides, the Kd in assay [8], in [9] and in assay [10] was > 30 µM (inactive) throughout.
Turning to `C1=C/COCc2cc(ccc2OCCN2CCCC2)Nc2nccc(n2)-c2cccc(c2)COC/1` [PACRITINIB], the Kd in [1], in assay [2], in assay [3], in assay [4], in assay [5] and in [6] was > 30 µM (inactive) each time. Also, the Kd in [7] is > 30 µM (inactive); in [8], > 30 µM (inactive); in assay [9], 52.1 µM (active); in assay [10], > 30 µM (inactive).
For `C[C@@H](c1ccc2nccn2c1)n1nnc2ncc(-c3cnn(C)c3)nc21` [SAVOLITINIB], the Kd in [1], in assay [2], in [3], in assay [4], in assay [5] and in assay [6] was > 30 µM (inactive) throughout. Moreover, the Kd in [7], in [8], in assay [9] and in assay [10] was > 30 µM (inactive) throughout.
As to `COc1cc(N2CCC(N3CCN(C)CC3)CC2)ccc1Nc1ncnc(Nc2ccccc2S(=O)(=O)C(C)C)n1` [ASP-3026], the Kd is > 30 µM (inactive) in assay [1]; > 30 µM (inactive) in assay [2]; 0.074 µM (active) in assay [3]; > 30 µM (inactive) in assay [4]; > 30 µM (inactive) in assay [5]; > 30 µM (inactive) in assay [6]. For the same molecule, the Kd in [7] is > 30 µM (inactive); in assay [8] it was > 30 µM (inactive); in assay [9], 5.31 µM (active); in [10], > 30 µM (inactive).
Turning to `O=c1sn(-c2cccc3ccccc23)c(=O)n1Cc1ccccc1` [TIDEGLUSIB], the Kd in [1], in assay [2], in assay [3], in [4], in assay [5] and in assay [6] was > 30 µM (inactive) each time. Besides, the Kd in assay [7], in assay [8], in [9] and in assay [10] was > 30 µM (inactive) throughout.
In the case of `Cc1ccc(-n2nc(C(C)(C)C)cc2NC(=O)NCc2cc(F)ccc2Oc2ccc3c(cnn3CCO)c2)cc1` [PEXMETINIB], the Kd in [1], in assay [2], in [3], in assay [5], in assay [6] and in [7] was > 30 µM (inactive) throughout. Moreover, the Kd in assay [8], in assay [9] and in [10] was > 30 µM (inactive) in each case.
Consider `CN(C)C(=O)c1cc2cnc(Nc3ccc(N4CCNCC4)cn3)nc2n1C1CCCC1` [RIBOCICLIB], for which the Kd in assay [1], in assay [2], in assay [3], in assay [5], in assay [6] and in [7] was > 30 µM (inactive) each time. Moreover, the Kd in [8], in assay [9] and in assay [10] was > 30 µM (inactive) throughout.
Take `CN1CC[C@@H](c2c(O)cc(O)c3c(=O)cc(-c4ccccc4Cl)oc23)[C@@H]1CO`: the Kd in assay [1], in assay [2], in assay [3], in [4], in [5] and in assay [6] was > 30 µM (inactive) in each case. Moreover, the Kd in assay [7], in assay [8], in assay [9] and in assay [10] was > 30 µM (inactive) throughout.
